Results: US20230416329A1, “A PEPTIDE WITH DISULFIDE BONDS AND INHIBITORY ACTIVITY AGAINST SERINE PROTEASES, DERIVED HYBRID PEPTIDES THEREOF, AND USES THEREOF” (INSTITUTE OF MATERIA MEDICA , CHINESE ACADEMY OF MEDICAL …, priority 2020, published 2023)
Bridge positions count the residues as written; N and C are the ends. Ends that are not written are not given here.

Key:
[1] = target: T1, interaction of PCSK9-LDLR (Homo sapiens, UniProt Q8NBP7); experiment: PCSK9-LDLR in vitro binding assay (inhibitory rate); conditions: for inhibitory activity on the interaction between PCSK9 and LDLR (in words): in vitro
T1 construct: purchased MBL Company, Beijing, China CY-8150
Experimental: Polypeptide PCSK9_1-14 (SEQ ID NOs: 210-223) is dissolved in pure water or DMSO. 85 μL reaction buffer, 5 μL 1 mM polypeptide sample and 10 μL 750 ng/mL PCSK9 protein was pre-incubated at room temperature for 20 minutes before being added to a 96 well plate. The OD450/540 nm value was measured according to the instructions of the PCSK9-LDLR in Vitro Binding Assay Kit (CY-8150, MBL Company, Beijing, China). Solvent control: replace polypeptide with 5 μL solvent. In 100 μL reaction system, the final concentration of the polypeptide and PCSK9 is 50 μM and 75 ng/mL, respectively.
Inhibition rate of polypeptide (%)=(OD450/540 nm(solvent control)−OD450/540 nm (sample))/OD450/540 nm(solvent control)×100

[2] = system: P407-induced hyperlipidemia mice; experiment: Subcutaneous injection of PCSK9 inhibitory peptide, serum total cholesterol in P407-induced hyperlipidemia mice; assay type: in vivo, mouse; conditions: for TC 15 min / TC 30 min / TC 60 min / TC 90 min / TC 120 min: serum, subcutaneous 2 μmol/kg, mean ± sd; for TC 15 min: 15 min after administration; for TC 30 min: 30 min after administration; for TC 60 min: 60 min after administration; for TC 90 min: 90 min after administration; for serum total cholesterol (TC) level after subcutaneous injection (in words): 2 μmol/kg single s.c., P407-induced hyperlipidemia mice; for TC 120 min: 120 min after administration
Experimental: The experimental peptide sample was prepared using PEG400 with a final concentration of […], and the final concentration of PEG400 is 20% (w/v). Normal ICR mice were fasted overnight with water ad libitum. The next day, all of the mice were randomly divided into model control group (Con) and polypeptide administration group (2 μmol/kg) according to body weight. Then, all of the mice were intraperitoneally injected with P407 (500 mg/kg) and fed with feed 2 hours later. Six mice were taken as a normal control group (Nor). After 24 hours, the mice in Con were subcutaneously injected with saline containing 20% PEG400, and the mice in the treatment group were given peptides. Then, the blood was taken at different time points after administration to determine the serum total cholesterol (TC) level. In consideration of the complexity of factors affecting serum LDL-C levels, especially the differences between single and long-term administration, the in vivo activity of PCSK9 inhibitory peptide is mainly observed for changes in serum TC levels.

Row | Substance | inhibitory activity on the interaction between PCSK9 and LDLR (in words) ([1]; listed as SEQ ID NO: 212) | inhibitory activity on the interaction between PCSK9 and LDLR (in words) ([1]; listed as SEQ ID NO: 227) | inhibitory activity on the interaction between PCSK9 and LDLR (in words) ([1]; listed as SEQ ID NO: 217) | Inhibitory rate on the interaction of PCSK9-LDLR ([1]; sample 50 μM, PCSK9 75 ng/mL) [%] | inhibitory activity on the interaction between PCSK9 and LDLR (in words) ([1]; listed as SEQ ID NO: 226) | inhibitory activity on the interaction between PCSK9 and LDLR (in words) ([1]; listed as SEQ ID NO: 218) | inhibitory activity on the interaction between PCSK9 and LDLR (in words) ([1]; listed as SEQ ID NO: 216) | inhibitory activity on the interaction between PCSK9 and LDLR (in words) [1] | TC 15 min [2] [µg/mL] | TC 30 min [2] [µg/mL] | TC 60 min [2] [µg/mL] | TC 90 min [2] [µg/mL] | serum total cholesterol (TC) level after subcutaneous injection (in words) [2] | serum total cholesterol (TC) level after subcutaneous injection (in words) ([2]; listed as SEQ ID NO: 218) | TC 120 min [2] [mg/dL]
1 | PCSK9_13: Pep2-8 analogue of Table 23 (GTNEALDNNCGRATKSIPPICFTVFTS; disulfide 10-21 (inferred)) | – | – | – | 15.8 ± 10.1 | – | – | – | – | – | – | – | – | – | – | –
2 | Phe-Cys-Thr-Tyr-Ser-Ile-Pro-Pro-Gln-Cys-Tyr-Gly-Gly-Thr-Val-Phe-Thr-Ser-Trp-Glu-Glu-Ala-Leu-Asp-Trp-Val (FCTYSIPPQCYGGTVFTSWEEALDWV; disulfide 2-10 (inferred)) [PCSK9_3CH] | – | – | – | – | good inhibitory effects in vitro | – | – | good inhibitory activity on the interaction between PCSK9 and LDLR | 3509 ± 1031 | 3828 ± 774 | 3930 ± 1509 | 3435 ± 838 | – | – | –
3 | Thr-Val-Phe-Thr-Ser-Gly-Cys-Gly-Arg-Ala-Thr-Lys-Ser-Ile-Pro-Pro-Ile-Cys-Phe-Trp-Glu-Glu-Tyr-Leu-Asp-Trp-Val (TVFTSGCGRATKSIPPICFWEEYLDWV; disulfide 7-18 (inferred)) [PCSK9_7] | – | – | – | – | – | – | good inhibitory effects in vitro | good inhibitory activity on the interaction between PCSK9 and LDLR | – | 3398 ± 990 | 3618 ± 954 | 3461 ± 937 | – | – | 337.6 ± 95.8

The next lines start with results.

Row | inhibitory activity on the interaction between PCSK9 and LDLR (in words) ([1]; listed as SEQ ID NO: 212) | inhibitory activity on the interaction between PCSK9 and LDLR (in words) ([1]; listed as SEQ ID NO: 227) | inhibitory activity on the interaction between PCSK9 and LDLR (in words) ([1]; listed as SEQ ID NO: 217) | Inhibitory rate on the interaction of PCSK9-LDLR ([1]; sample 50 μM, PCSK9 75 ng/mL) [%] | inhibitory activity on the interaction between PCSK9 and LDLR (in words) ([1]; listed as SEQ ID NO: 226) | inhibitory activity on the interaction between PCSK9 and LDLR (in words) ([1]; listed as SEQ ID NO: 218) | inhibitory activity on the interaction between PCSK9 and LDLR (in words) ([1]; listed as SEQ ID NO: 216) | Substance | inhibitory activity on the interaction between PCSK9 and LDLR (in words) [1] | TC 15 min [2] [µg/mL] | TC 30 min [2] [µg/mL] | TC 60 min [2] [µg/mL] | TC 90 min [2] [µg/mL] | serum total cholesterol (TC) level after subcutaneous injection (in words) [2] | serum total cholesterol (TC) level after subcutaneous injection (in words) ([2]; listed as SEQ ID NO: 218) | TC 120 min [2] [mg/dL]
4 | good inhibitory effects in vitro | – | – | – | – | – | – | CGRATKSIPPICFGTVFTSWEEALDWV (cysteine pairing not given here) | good inhibitory activity on the interaction between PCSK9 and LDLR | 3466 ± 662 | 3490 ± 741 | 3294 ± 649 | 3265 ± 678 | – | – | –
5 | – | good inhibitory effects in vitro | – | – | – | – | – | ICTASIPPICQGTVFTSWEEALDWV (cysteine pairing not given here) | good inhibitory activity on the interaction between PCSK9 and LDLR | 2885 ± 769 | 2673 ± 724 | 2695 ± 699 | 2605 ± 759 | – | – | –
6 | – | – | good inhibitory effects in vitro | – | – | – | – | PCSK9_8: Pep2-8 analogue containing the anti-trypsin peptide scaffold BT9 (Table 23) (TVFTSGCGRATKSIPPICFSWEEYLDWV; disulfide 7-18 (inferred)) | good inhibitory activity on the interaction between PCSK9 and LDLR | 2269 ± 489 | 2216 ± 465 | 2074 ± 470 | 2037 ± 509 | – | – | –
7 | – | – | – | – | – | good inhibitory effects in vitro | – | Thr-Val-Phe-Thr-Ser-Gly-Arg-Cys-Thr-Lys-Ser-Ile-Pro-Pro-Ile-Cys-Phe-Trp-Glu-Glu-Tyr-Leu-Asp-Trp-Val (TVFTSGRCTKSIPPICFWEEYLDWV; disulfide 8-16 (inferred)) [PCSK9_9] | good inhibitory activity on the interaction between PCSK9 and LDLR | – | 3143 ± 842 | 3516 ± 914 | 3409 ± 970 | reduced serum TC level | excellent lowering lipid (total cholesterol) activities in vivo | 327.4 ± 90.4
